Patent EP0134485A2, “5-Cyclopropyl-5,8-dihydro-8-oxo-1,3-dioxolo-(4,5-g) quinoline-7-carboxylic acid, process for its preparation and bactericidal agent containing it” (BAYER AG, priority 1983, dated 1985)
In brackets after ≈: the same amount, converted by molar mass.

Experiments:
Experiment in all cases: Agar dilution test (MIC), Isosensitest medium
Format in all cases: cell-based
[1] = system: E. coli 455/7; conditions: Escherichia coli, strain E. coli 455/7, Denley multipoint inoculator, read-out: MHK
From the text: (§1) In der nachstehenden Tabelle sind die MHK-Werte der erfindungsgemäßen Verbindung angegeben.

[2] = system: Klebsiella 6179; conditions: strain Klebsiella 6179, Denley multipoint inoculator, read-out: MHK
From the text: as §1

[3] = system: Proteus 8175; conditions: strain Proteus 8175, Denley multipoint inoculator, read-out: MHK
From the text: as §1

[4] = system: Proteus mir. 8223; conditions: strain Proteus mir. 8223, Denley multipoint inoculator, read-out: MHK
From the text: as §1

[5] = system: Pseudom. W.; conditions: strain Pseudom. W., Denley multipoint inoculator, read-out: MHK
From the text: as §1

[6] = system: Serratia 16040; conditions: strain Serratia 16040, Denley multipoint inoculator, read-out: MHK
From the text: as §1

[7] = system: Staph. aur. 133; conditions: strain Staph. aur. 133, Denley multipoint inoculator, read-out: MHK
From the text: as §1

[8] = system: Streptococc. faec. 9790; conditions: strain Streptococc. faec. 9790, Denley multipoint inoculator, read-out: MHK
From the text: as §1

Structure (SMILES): O=C(O)c1cn(C2CC2)c2cc3c(cc2c1=O)OCO3 [I, 5-Cyclopropyl-5,8-dihydro-8-oxo-1,3-dioxolo[4,5-g]chinolin-7-carbonsäure]
- MIC [1]: 16 µg/mL (≈ 58.6 µM)
- MIC [2]: 0.06 µg/mL (≈ 0.22 µM)
- MIC [3]: 0.03 µg/mL (≈ 0.11 µM)
- MIC [4]: 8 µg/mL (≈ 29.3 µM)
- MIC [5]: 4 µg/mL (≈ 14.6 µM)
- MIC [6]: 4 µg/mL (≈ 14.6 µM)
- MIC [7]: 0.25 µg/mL (≈ 0.915 µM)
- MIC [8]: 8 µg/mL (≈ 29.3 µM)
